In patent publication US20030050306A1, “Novel heteroaryl derivatives, their preparation and use” (H. Lundbeck A/S, priority 1999, published 2003):

Columns and labels:
[1] = target: T1, cloned human 5-HT1A receptors (Homo sapiens, UniProt P08908); assay: Inhibition of 3H-5-CT binding to human 5-HT1A receptors; settings: cloned human 5-HT1A receptors in HeLa cells (HA7); for inhibition at 0.1 µM: at 100 nM
T1 construct: expressed in transfected cells; host or cells: HeLa cells (HA7)
T1 sequence (P08908 1-422): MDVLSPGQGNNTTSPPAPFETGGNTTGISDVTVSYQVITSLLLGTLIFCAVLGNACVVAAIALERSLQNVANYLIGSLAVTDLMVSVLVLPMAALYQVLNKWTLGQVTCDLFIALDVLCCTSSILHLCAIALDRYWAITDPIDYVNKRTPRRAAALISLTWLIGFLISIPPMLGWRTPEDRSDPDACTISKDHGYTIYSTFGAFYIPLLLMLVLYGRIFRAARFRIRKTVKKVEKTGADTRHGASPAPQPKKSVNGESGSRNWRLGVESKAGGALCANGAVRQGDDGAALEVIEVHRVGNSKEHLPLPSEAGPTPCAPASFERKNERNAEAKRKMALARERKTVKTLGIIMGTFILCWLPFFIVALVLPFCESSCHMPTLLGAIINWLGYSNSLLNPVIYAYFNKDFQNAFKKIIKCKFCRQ
Protocol: The affinity of the compounds of the invention to 5-HT1A receptors was determined by measuring the inhibition of binding of a radioactive ligand at 5-HT1A receptors as described in the following test:
Inhibition of ^3H-5-CT Binding to Human 5-HT1A Receptors
By this method the inhibition by drugs of the binding of the 5-HT1A agonist ^3H-5-carboxamido tryptamine (3H-5-CT) to cloned human 5-HT1A receptors stably expressed in transfected HeLa cells (HA7) (Fargin, A. et al, J. Biol. Chem., 1989, 264, 14848) is determined in vitro. The assay was performed as a modification of the method described by Harrington, M. A. et at, J. Pharmacol. Exp. Ther., 1994, 268, 1098. Human 5-HT1A receptors (40 μg of cell homogenate) were incubated for 15 minutes at 37° C. in 50 mM Tris buffer at pH 7.7 in the presence of ^3H-5-CT. Non-specific binding was determined by including 10 μM of metergoline. The reaction was terminated by rapid filtration through Unifilter GF/B filters on a Tomtec Cell Harvester. Filters were counted in a Packard Top Counter.

[2] = target: T2, human cloned dopamine D4.2 receptors (Homo sapiens, UniProt P21917, DEL265-296); assay: Inhibition of the binding of 3H-YM-09151-2 to human dopamine D4 receptors; settings: human cloned dopamine D4.2 receptors in CHO-cells; for inhibition at 0.05 µM: at 50 nM
T2 construct: expressed in transfected cells; host or cells: CHO cells
T2 sequence (P21917 with tags, fused parts or gaps DEL265-296): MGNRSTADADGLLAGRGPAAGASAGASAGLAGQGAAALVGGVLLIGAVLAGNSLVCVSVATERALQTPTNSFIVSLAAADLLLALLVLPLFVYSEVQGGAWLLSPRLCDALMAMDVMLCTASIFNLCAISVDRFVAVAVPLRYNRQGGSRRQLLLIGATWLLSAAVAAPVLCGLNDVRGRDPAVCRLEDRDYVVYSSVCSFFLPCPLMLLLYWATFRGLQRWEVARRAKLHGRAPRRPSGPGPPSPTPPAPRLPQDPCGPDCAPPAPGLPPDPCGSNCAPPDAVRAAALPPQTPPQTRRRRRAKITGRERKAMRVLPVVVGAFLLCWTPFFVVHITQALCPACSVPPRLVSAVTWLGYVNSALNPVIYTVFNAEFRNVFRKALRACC
Protocol: The compounds of the invention have also been tested for their affinity to dopamine D4 receptors in the following test.
Inhibition of the Binding of ^3H-YM-09151-2 to Human Dopamine D4 Receptors
By this method the inhibition by drugs of the binding of [^3H]YM-09151-2 (0.06 nM) to membranes of human cloned dopamine D4.2 receptors expressed in CHO-cells is determined in vitro. Method modified from NEN Life Science Products, Inc., technical data certificate PC2533-10/96.

Fc1cc(Cl)c(OCCCN2CCN(c3cccc4c3OCCO4)CC2)c(Cl)c1 [Compound 5at, 1-[3-(2,6-Dichloro-4-fluoro-phenoxy)-propyl]-4-(2,3-dihydro-benzo[1,4]dioxin-5-yl)-piperazine]
IC50 [1]: 2.2 nM
IC50 [2]: 3.4 nM

N#Cc1cc(Br)c(OCCCN2CCN(c3cccc4c3OCCO4)CC2)c(Br)c1 [Compound 5bx, 3,5-Dibromo-4-{3-[4-(2,3-dihydro-benzo[1,4]dioxin-5-yl)-piperazin-1-yl]-propoxy}-benzonitrile]
IC50 [1]: 2.2 nM
IC50 [2]: 19 nM

Clc1ccccc1OCCCN1CCN(c2cccc3c2OCCO3)CC1 [Compound 1a, 1-[3-(2-Chloro-phenoxy)-propyl]-4-(2,3-dihydro-benzo[1,4]dioxin-5-yl)-piperazine]
IC50 [1]: 10 nM
IC50 [2]: 1.1 nM

Clc1ccccc1SCCCN1CCN(c2cccc3ccsc23)CC1 [Compound 5ce, 1-Benzo[b]thiophen-7-yl-4-[3-(2-chloro-phenylsulfanyl)-propyl]-piperazine]
IC50 [1]: 4.8 nM
IC50 [2]: 16 nM

Clc1cccc(Cl)c1OCCCN1CCN(c2cccc3c2OCCO3)CC1 [Compound 1b, 1-[3-(2,6-Dichloro-phenoxy)-propyl]-4-(2,3-dihydro-benzo[1,4]dioxin-5-yl)-piperazine]
IC50 [1]: 1.1 nM
IC50 [2]: 5.9 nM

Fc1cc(Br)cc(F)c1OCCCCN1CCN(c2cccc3ccsc23)CC1 [Compound 5cc, 1-Benzo[b]thiophen-7-yl-4-[4-(4-bromo-2,6-difluoro-phenoxy)-butyl]-piperazine]
IC50 [1]: 9.7 nM
IC50 [2]: 34 nM

Brc1cccc(SCCCN2CCN(c3cccc4c3OCCO4)CC2)c1 [Compound 7bl, 1-(2,3-Dihydro-benzo[1,4]dioxin-5-yl)-4-[3-(3-bromo-phenylsulfanyl)-propyl]-piperazine]
inhibition at 0.1 µM [1]: 95%
inhibition at 0.05 µM [2]: 102%

FC(F)(F)c1ccc(OCCCN2CCN(c3cccc4c3OCCO4)CC2)cc1 [Compound 2b, 1-(2,3-Dihydro-benzo[1,4]dioxin-5-yl)-4-[3-(4-trifluoromethyl-phenoxy)-propyl]-piperazine]
IC50 [1]: 15 nM
IC50 [2]: 12 nM

CCc1ccccc1OCCN1CCN(c2cccc3c2OCCO3)CC1 [Compound 7ag, 1-(2,3-Dihydro-benzo[1,4]dioxin-5-yl)-4-[2-(2-ethyl-phenoxy)-ethyl]-piperazine]
inhibition at 0.1 µM [1]: 79%
inhibition at 0.05 µM [2]: 88%

Clc1ccc(SCCCCN2CCN(c3cccc4c3OCCO4)CC2)c(Cl)c1 [Compound 7ar, 1-[4-(2,4-Dichloro-phenylsulfanyl)-butyl]-4-(2,3-dihydro-benzo[1,4]dioxin-5-yl)-piperazine]
IC50 [1]: 3.8 nM
inhibition at 0.05 µM [2]: 99%

Fc1cc(Br)cc(F)c1OCCCN1CCN(c2cccc3ccsc23)CC1 [Compound 5cj, 1-Benzo[b]thiophen-7-yl-4-[3-(4-bromo-2,6-difluoro-phenoxy)-propyl]-piperazine]
inhibition at 0.1 µM [1]: 93%
IC50 [2]: 59 nM

CC1(C)Cc2cc(Cl)cc(N3CCN(CCCOc4c(Cl)cc(S(C)(=O)=O)cc4Cl)CC3)c2O1 [Compound 5bh, 1-(5-Chloro-2,2-dimethyl-2,3-dihydro-benzofuran-7-yl)-4-[3-(2,6-dichloro-4-methanesulfonyl-phenoxy)-propyl]-piperazine]
IC50 [1]: 1.7 nM
IC50 [2]: 76 nM

CS(=O)(=O)c1cc(Cl)c(OCCCN2CCN(c3cccc4ccsc34)CC2)c(Cl)c1 [Compound 5ao, 1-Benzo[b]thiophen-7-yl-4-[3-(2,6-dichloro-4-methanesulfonyl-phenoxy)-propyl]-piperazine]
IC50 [1]: 3.8 nM
IC50 [2]: 68 nM

Clc1cccc(SCCN2CCN(c3cccc4c3OCCO4)CC2)c1Cl [Compound 7ah, 1-[2-(2,3-Dichloro-phenylsulfanyl)-ethyl]-4-(2,3-dihydro-benzo[1,4]dioxin-5-yl)-piperazine]
IC50 [1]: 1.6 nM
inhibition at 0.05 µM [2]: 87%

Fc1ccc(OCCCN2CCN(c3cccc4ccsc34)CC2)c(F)c1 [Compound 5ci, 1-Benzo[b]thiophen-7-yl-4-[3-(2,4-difluoro-phenoxy)-propyl]-piperazine]
IC50 [1]: 3.5 nM
IC50 [2]: 2 nM

CC1(C)Cc2cc(Cl)cc(N3CCN(CCCOc4c(Cl)cc(F)cc4Cl)CC3)c2O1 [Compound 5bk, 1-(5-Chloro-2,2-dimethyl-2,3-dihydro-benzofuran-7-yl)-4-[3-(2,6-dichloro-4-fluoro-phenoxy)-propyl]-piperazine]
IC50 [1]: 22 nM
IC50 [2]: 11 nM

Brc1cc(Br)c(OCCCN2CCN(c3cccc4c3OCCO4)CC2)c(Br)c1 [Compound 5bq, 1-(2,3-Dihydro-benzof[1,4]dioxin-5-yl)-4-[3-(2,4,6-tribromo-phenoxy)-propyl]-piperazine]
IC50 [1]: 1.2 nM
IC50 [2]: 2.4 nM

Fc1ccc(OCCCN2CCN(c3cccc4c3OCCO4)CC2)c(Br)c1 [Compound 5aa, 1-[3-(2-Bromo-4-fluoro-phenoxy)-propyl]-4-(2,3-dihydro-benzo[1,4]dioxin-5-yl)-piperazine]
IC50 [1]: 4.9 nM
IC50 [2]: 0.53 nM

CC(C)c1ccccc1SCCCCN1CCN(c2cccc3c2OCCO3)CC1 [Compound 7bn, 1-(2,3-Dihydro-benzo[1,4]dioxin-5-yl)-4-[4-(2-isopropyl-phenylsulfanyl)-butyl]-piperazine]
inhibition at 0.1 µM [1]: 93%
inhibition at 0.05 µM [2]: 93%

c1ccc(SCCN2CCN(c3cccc4c3OCCO4)CC2)cc1 [Compound 7aa, 1-(2,3-Dihydro-benzo[1,4]dioxin-5-yl)-4-(2-phenylsulfanyl-ethyl)-piperazine]
inhibition at 0.1 µM [1]: 78%
inhibition at 0.05 µM [2]: 84%

Cc1ccc(SCCCN2CCN(c3cccc4c3OCCO4)CC2)c(C)c1 [Compound 7aj, 1-(2,3-Dihydro-benzo[1,4]dioxin-5-yl)-4-[3-(2,4-dimethyl-phenylsulfanyl)-propyl]-piperazine]
inhibition at 0.1 µM [1]: 99%
inhibition at 0.05 µM [2]: 84%

Fc1ccc(OCCCCN2CCN(c3cccc4ccsc34)CC2)c(Br)c1 [Compound 5bf, 1-Benzo[b]thiophen-7-yl-4-[4-(2-bromo-4-fluoro-phenoxy)-butyl]-piperazine]
IC50 [1]: 35 nM
IC50 [2]: 3.1 nM

Cc1ccccc1SCCCCN1CCN(c2cccc3c2OCCO3)CC1 [Compound 7bc, 1-(2,3-Dihydro-benzo[1,4]dioxin-5-yl)-4-(4-o-tolylsulfanyl-butyl)-piperazine]
inhibition at 0.1 µM [1]: 82%
inhibition at 0.05 µM [2]: 96%

Clc1ccc(Cl)c(SCCCCN2CCN(c3cccc4c3OCCO4)CC2)c1 [Compound 7bd, 1-[4-(2,5-Dichloro-phenylsulfanyl)-butyl]-4-(2,3-dihydro-benzo[1,4]dioxin-5-yl)-piperazine]
inhibition at 0.1 µM [1]: 84%
inhibition at 0.05 µM [2]: 102%

N#Cc1ccc(N2CCN(CCCOc3ccc(F)cc3Cl)CC2)c2c1OCCO2 [Compound 5ck, 8-{4-[3-(2-chloro-4-fluorophenoxy)-propyl]-piperazin-1-yl}-2,3-dihydro-benzo[1,4]dioxine-5-carbonitrile]
IC50 [1]: 180 nM
inhibition at 0.05 µM [2]: 77%

Fc1cc(F)c(OCCCN2CCN(c3cccc4c3OCCO4)CC2)c(Br)c1 [Compound 5bo, 1-[3-(2-Bromo-4,6-difluoro-phenoxy)-propyl]-4-(2,3-dihydro-benzo[1,4]dioxin-5-yl)-piperazine]
IC50 [1]: 1.7 nM
IC50 [2]: 2.4 nM

Cc1cc(F)ccc1OCCCN1CCN(c2ccc(C#N)c3c2OCCO3)CC1 [Compound 6a, 8-{4-[3-(4-Fluoro-2-methyl-phenoxy)-propyl]-piperazin-1-yl}-2,3-dihydro-benzo[1,4]dioxine-5-carbonitrile]
IC50 [1]: 120 nM
IC50 [2]: 6.9 nM
